Assay results published in US9440982B2 (Eolas Therapeutics, Inc., priority 2012, dated 2016).

Target: T1, OX1 (Homo sapiens, UniProt O43613)
T1 construct: expressed in transfected cells; host or cells: CHO (CHO-OX1, kept under selection antibiotic)
T1 sequence (O43613 1-425): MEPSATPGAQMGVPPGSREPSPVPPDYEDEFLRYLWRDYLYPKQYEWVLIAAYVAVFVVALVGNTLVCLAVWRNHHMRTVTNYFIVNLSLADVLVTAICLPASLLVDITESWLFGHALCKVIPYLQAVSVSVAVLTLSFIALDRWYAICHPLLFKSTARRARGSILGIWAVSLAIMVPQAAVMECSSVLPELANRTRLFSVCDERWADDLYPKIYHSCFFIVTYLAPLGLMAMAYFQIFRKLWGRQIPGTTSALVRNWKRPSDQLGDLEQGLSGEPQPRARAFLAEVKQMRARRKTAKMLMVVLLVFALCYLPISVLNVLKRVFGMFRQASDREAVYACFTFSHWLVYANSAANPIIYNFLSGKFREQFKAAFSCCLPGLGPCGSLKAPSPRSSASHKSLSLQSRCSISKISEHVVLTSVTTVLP
Experiment: Orexin receptor cell-based functional assay, [Ca2+]i by FLIPR, CHO-OX1 cells
Details: CHO-OX1 cells, [Ca2+]i by FLIPR, antagonist dose-range 0.1 nM-10 μM, EC90 of OXA; read-out: OX1
Method: Measurement of [Ca^2+]i using a FLIPR: CHO—OX1 or CHO—OX2 cells are seeded into black-walled clear-base 384-well plates (Costar) at a density of 20,000 cells per well in F12-K medium supplemented with 10% FBS and selection antibiotic (500 ug/ml G418 or 15 ug/ml Blasticidin) and cultured overnight. The cells are incubated with equal volume of calcium4 loading buffer (Molecular Devices, Inc.) containing 2.5 mM probenecid at 37° C. for 30 min, followed by putative OX1 or OX2 receptor antagonists (dose-range 0.1 nM-10 μM) for another 30 min.
The cells are incubated with equal volume of calcium6 loading buffer (Molecular Devices, Inc.) containing 2.5 mM probenecid at 37° C. for 2 h, followed by test compounds (dose-range 0.1 nM-10 μM) for another 30 min.

Row | Compound | IC50 [nM]
1 | Cc1nc(C(=O)N2CCC[C@@H](C)[C@H]2CNc2ccc(C(F)(F)F)cn2)c(-c2cccc(F)c2)s1 [Example A109, (5-(3-Fluorophenyl)-2-methylthiazol-4-yl)((2S,3R)-3-methyl-2-(((5-(trifluoromethyl)pyridin-2-yl)amino)methyl)piperidin-1-yl)methanone] | < 10
2 | C[C@@H]1CCCN(C(=O)c2c(-n3nccn3)ccc(F)c2F)[C@@H]1CNc1ncc(C(F)(F)F)cn1 [Example A337, (2,3-Difluoro-6-(2H-1,2,3-triazol-2-yl)phenyl)((2S,3R)-3-methyl-2-(((5-(trifluoromethyl)pyrimidin-2-yl)amino)methyl)piperidin-1-yl)methanone] | 9

Same assay, conditions: Table 2; CHO-OX1 cells, EC90 of OXA; read-out: IC50 Bioactivity OX1

Row | Compound | IC50 [nM]
3 | Cc1nc(-c2ccccc2)c(C(=O)N2C(C)CCCC2CCOc2ccccc2)s1 (racemic) [Example 30, rac-(2-Methyl-4-phenylthiazol-5-yl)(2-methyl-6-(2-phenoxyethyl)piperidin-1-yl)methanone] | 220
4 | Cc1nc(C(=O)N2CC3CCCCC3C2CNC(=O)c2cccc3occc23)c(-c2ccccc2)s1 (single isomer, unassigned) [Example 70] | 170
5 | Cc1nc(C(=O)N2CCC[C@@H](C)[C@H]2CNc2ccc(C(F)(F)F)cn2)c(-c2ccccc2)s1 (racemic) [Example 73, rac-cis-(3-Methyl-2-(((5-(trifluoromethyl)pyridin-2-yl)amino)methyl)piperidin-1-yl)(2-methyl-5-phenylthiazol-4-yl)methanone] | < 10
6 | Cc1ccc(-c2cnn(CCN3CCOCC3)c2)c(C(=O)N2CCC[C@@H](C)[C@H]2CNc2ccc(C(F)(F)F)cn2)c1 (racemic) [Example 111, rac-cis-(3-Methyl-2-(((5-(trifluoromethyl)pyridin-2-yl)amino)methyl)piperidin-1-yl)(5-methyl-2-(1-(2-morpholinoethyl)-1H-pyrazol-4-yl)phenyl)methanone] | > 1000
7 | CNC1CCC(CNC(=O)c2cccc3cccnc23)N(C(=O)c2sc(C)nc2-c2ccccc2)C1 (racemic) [Example 45, N-((1-(2-Methyl-4-phenylthiazole-5-carbonyl)-5-(methylamino)piperidin-2-yl)methyl)quinoline-8-carboxamide] | < 10000
8 | Cc1nc(C(=O)N2CC(F)CCC2CNC(=O)c2cccc3cccnc23)c(-c2ccccc2)s1 (racemic) [Example 1, N-((5-Fluoro-1-(2-methyl-5-phenylthiazole-4-carbonyl)piperidin-2-yl)methyl)quinoline-8-carboxamide] | 1
9 | Cc1nc(-c2ccccc2)c(C(=O)N2CCC(=O)[C@H]2CNC(=O)c2cccc3cccnc23)s1 [Example 132, (R)—N-((1-(2-Methyl-4-phenylthiazole-5-carbonyl)-3-oxopyrrolidin-2-yl)methyl)quinoline-8-carboxamide] | 230
10 | Cc1nc(C(=O)N2CCC[C@@H](C)[C@H]2CNc2ccnc(Cl)n2)c(-c2ccc(F)cc2)s1 (racemic) [Example 19, rac-cis-(2-(((2-Chloropyrimidin-4-yl)amino)methyl)-3-methylpiperidin-1-yl)(5-(4-fluorophenyl)-2-methylthiazol-4-yl)methanone] | 270
11 | Cc1nc(C(=O)N2CCC[C@@H](C)[C@H]2CNc2cccc(C(F)(F)F)n2)c(-c2ccc(F)cc2)s1 (racemic) [Example 87, rac-cis-(3-Methyl-2-(((6-(trifluoromethyl)pyridin-2-yl)amino)methyl)piperidin-1-yl) (5-(4-fluorophenyl)-2-methylthiazol-4-yl)methanone] | 220
12 | O=C(NC[C@@H]1C[C@H](F)CN1C(=O)c1ccccc1-c1ccccc1)c1cccc2cccnc12 [Example 5, N-(((2S,4S)-1-(Biphenylcarbonyl)-4-fluoropyrrolidin-2-yl)methyl)quinoline-8-carboxamide] | 6
